The values below are quoted from earlier work in EP1935397A1, “Oral and tooth care and cleaning agents for combating halitosis” (Henkel AG & Co. KGaA, priority 2006, dated 2008).

For the first data set the following is noted: 20°C.
For the compound Zinkacetat-Dihydrat, the Löslichkeit is 430 g/l (20°C).

Zinkgluconat: the Löslichkeit was 100 g/l (20°C).

Regarding Zinkiodid, the Löslichkeit is 4500 g/l (20°C).

Take Zinknitrat Hexahydrat: the Löslichkeit was 1843 g/l (20°C).

For Zinkstearat, the Löslichkeit is 0,9 mg/l (20°C).

On to Zinksulfat-Heptahydat, for which the Löslichkeit was 960 g/l (20°C).

For Zinksulfat-Monohydrat, the Löslichkeit is ~350 g/l (20°C).

Still in this data set, the particulars now being: 20°C; result in words.
On to Zinkhydroxycarbonat, for which the Löslichkeit entry was “Fast unlöslich (20°C)”.

As to Zinknitrat-Tetrahydrat, the Löslichkeit entry is “Leicht löslich (20°C)”.

The data set is the same for the next values; noted with them: 25°C.
On to Zinkbromid, for which the Löslichkeit is 820 g/l (25°C).

For the compound Zinkchlorid, the Löslichkeit was 4320 g/l (25°C).

The same data set, now with this note: temperature not given; result in words.
For the compound `[O-2].[Zn+2]` [Zinkoxid], the Löslichkeit entry is “Unlöslich”.
